Data published in patent US10259799B2, “Hydroxyl pyranone compound, method for producing same, and cosmetics composition comprising compound” (AMOREPACIFIC CORPORATION, priority 2015, dated 2019).

Tested on: human adipose tissue derived mesenchymal stem cells (hAT-MSCs)
Experiment: Adipocyte differentiation promoting effect: adiponectin in culture medium by ELISA
Format: cell-based
Details: for expression level of adiponectin (in words): hAT-MSCs with IDX, 14th day, comment on Table 1; for Adiponectin (pg/ml, Avg ± S.D.): medium collected on 14th day of differentiation
Protocol: In order to examine the adipocyte differentiation promoting effect of the compounds prepared in the Example, the following test was carried out.
Adiponectin is a typical protein hormone secreted from adipocytes. It has been reported that as adipocytes are differentiated, the expression of adiponectin is increased. Therefore, the adipocyte differentiation promoting effect was confirmed by measuring the amount of adiponectin expressed in the cell culture medium when treated with the novel compound of the present invention, which is an indicator of adipocyte differentiation promoting.
The adipocyte differentiation was performed by culturing human adipose tissue derived mesenchymal stem cells (hAT-MSCs) from Lonza Inc. (Walkersville, Md., USA) according to Lonza's guidelines. The adipocyte differentiation was carried out using the method recommended by Lonza Inc., except that the adipocyte differentiation of adipose-derived mesenchymal stem cells is induced by using troglitazone (TRO) instead of indomethacin. Specifically, the mesenchymal stem cells were differentiated into adipocytes by adding the medium for adipocyte differentiation (hereinafter referred to as IDX), which was prepared by mixing […] of insulin, […] of Dexamethasone (DEXA), 0.5 mM of isobutylmethylxanthine (IBMX) and […] of TRO, to the culture medium of mesenchymal stem cells, and then culturing it.
In order to determine the expression level of adiponectin, after the medium for adipocyte differentiation was collected on the 14th day of differentiation, the amount of adiponectin was quantified using the Adiponectin ELISA Kit (R & D systems, Cat. No. DY1065) (each data value was corrected by the control group). The specific measurement method using Adiponectin ELISA Kit was as follows.
First, the capture antibody was reacted in a 96-well plate, washed with washing buffer solution, and then the material shown in Table 1 below was added and reacted at room temperature for 2 hours. Thereafter, while washing three times every time when going through each step, the detection antibody, the HRP enzyme, the substrate solution, and the stop solution were added in order and reacted for the time indicated in the protocol. After the final reaction, the absorbance was measured at a wavelength of 450 nm using a spectrophotometer.

SMILES	expression level of adiponectin (in words)	Adiponectin (pg/ml, Avg ± S.D.) [pg/mL]
O=c1cc(CO)occ1O [Kojic acid]	not increased	
O=C(/C=C/c1ccc2c(c1)OCO2)OCc1cc(=O)c(O)co1 [Seletinoid G]		1505 ± 109
CC1=C(/C=C/C(=O)OCc2cc(=O)c(O)co2)C(C)(C)CCC1 [compound of example, 3-(2,6,6-trimethyl-cyclohex-1-enyl)-propenoic acid 5-hydroxy-4-oxo-4H-pyran-2-ylmethyl ester]	increases almost similarly to that with Glibenclamide	1804 ± 110
